Results reported in patent publication US8450272B2, “Combinations of somatostatin-analogs with different selectivity for human somatostatin receptor subtypes” (priority 2006, dated 2013).
Numbered stars: 1 amine (or outer) side, 2 acyl side, 3 side chain; on linkers, the order of the positions; unused ones are H or OH. Square brackets hold non-standard residues; d marks the D form. Side chains are listed from the residue outwards. Peptide text beside a SMILES is read from it. * marks the point of attachment. ξ: configuration not given here. Ethylenediamine = C(CN[*:2])N[*:1]; Hyp = O=C(O)[C@@H]1C[C@@H](O)CN1; ξPhg = NC(C(=O)O)c1ccccc1; CO = O=C([*:1])[*:2]; Bn = c1ccc(C*)cc1

Assays:
[1] = Short term experiment: acute s.c. injection, blood glucose AUC; format: in vivo, adult male Lewis rats; details: 10 μg/kg s.c., rats, within 1 hour after injection
Method: Effect of an acute s.c. injection of octreotide and pasireotide in rats (1 and 10 μg/kg) and different combinations thereof on the accumulated glucose levels between 0 and 1 hour after the injection (n=6 animals per group).
In the short term experiment octreotide and pasireotide and their combination were s.c. injected in rats in 1 ml saline. Blood samples were taken by sublingual bleeding the rats 15 min, 30 min, 1 h, 3 h, 6 h and 8 h after the injection and blood glucose was determined using ACCU-Chek Compact (Roche), which was newly calibrated before each measurement. In order to determine the overall effect of the treatment on glucose the area under the curve (AUC) was determined using GraphPad Prizm. 4.0.

[2] = Long-term s.c. infusion by osmotic minipumps, plasma glucose concentration; format: in vivo, adult male Lewis rats; details: 3 and 10 μg/kg/h alone, rats
Method: Effect of long term application of octreotide and pasireotide alone and in combination on plasma glucose concentration in rats. Compounds were continuously infused by osmotic minipumps at 3 and 10 μg/kg/h for the single compounds and at 1.5, 5 and 10 μg/kg/h for the combinations. Plasma glucose levels were determined one day before and 1, 7 and 14 days after minipumps implantation.
In the long-term experiments octreotide and pasireotide and their combination were s.c. infused in rats using osmotic minipumps (Alzet model: 2002). Blood samples were taken by sublingual bleeding on the day before minipump implantation and after 1, 7 and 14 days.

[3] = in vivo; cited from earlier work
[4] = Previous experiments: glucose increase after pasireotide injection; format: in vivo; details: rats
Method: Based on previous experiments in rats it was known that acute injection of pasireotide causes an increase in glucose, which was rapid in onset (within 30 min after injection), reached its peak between 1 and 3 h and returned to baseline values after 6-8 h. […] Therefore only moderate increases in glucose have been observed after repeated or long-term treatment with pasireotide mainly on the first day(s) of treatment. […] In order to investigate the efficacy of both compounds and their combination on a relevant parameter in rats plasma GH and IGF-1 levels as well as body weight were determined in rats within 14 days of continuous infusion with the compounds. […] Due to the known pulsatile release pattern of GH and the low sensitivity of the available GH RIA, levels of IGF-1 and body weight (BW) are more reliable parameters to determine efficacy of a compound on the GH/IGF-1 system. GH and IGF-1 are both growth factors which are responsible for growth of animals and humans and lack of these factors result in growth retardation in animals which are still growing (like in rats). […] Unlike the rapid changes in glucose levels, changes in IGF-1 levels are only observed after 1-2 days of treatment with somatostatin analogues.

| Compound | change of AUC glucose levels vs. control [1] | plasma glucose ([2]; continuous infusion for 14 days) | t1/2 [3] | onset of increase in glucose after injection ([4]; acute injection) | return of glucose to baseline values ([4]; acute injection) | glucose response on repeated or long term injections ([4]; repeated or long term injections) | plasma level of glucose ([2]; continuous infusion, day 1 and 7 of treatment) |
| --- | --- | --- | --- | --- | --- | --- | --- |
| C[C@@H](O)[C@@H]1NC(=O)[C@H](CCCCN)NC(=O)[C@@H](Cc2c[nH]c3ccccc23)NC(=O)[C@H](Cc2ccccc2)NC(=O)[C@@H](NC(=O)[C@H](N)Cc2ccccc2)CSSC[C@@H](C(=O)N[C@H](CO)[C@@H](C)O)NC1=O [octreotide] | no effect | no effect or caused a small but significant reduction | – | – | – | – | – |
| NCCCC[C@@H]1NC(=O)[C@@H](Cc2c[nH]c3ccccc23)NC(=O)C(c2ccccc2)NC(=O)[C@@H]2C[C@@H](OC(=O)NCCN)CN2C(=O)[C@H](Cc2ccccc2)NC(=O)[C@H](Cc2ccc(OCc3ccccc3)cc2)NC1=O (stereo partly drawn) [pasireotide, cyclo[{4-(NH2—C2H4—NH—CO—O—)Pro}-Phg-DTrp-Lys-Tyr(4-Bzl)-Phe]] (cyclo(F[Hyp]([CO-Ethylenediamine])[ξPhg][dW]KY(Bn))) | 56% | – | 11 h | ≤ 30 min | 6 to 8 h | strong tachyphylaxis | slightly, but significantly increased |
